Test results: US9845319B2, “Amide substituted thiazoles as modulators of RORyt” (Janssen Pharmaceutica NV, priority 2014, dated 2017)

Legend:
[1] = biological target: T1, human RORγt ligand binding domain (RORγt LBD) (Homo sapiens, UniProt P51449); experiment: RORγt ThermoFluor assay; settings: estimated from thermal shift concentration response
T1 construct: His-tag (N); TurboTEV protease cleavage site (ENLYFQG) (N); made in house; host or cells: E. coli (pHIS1, a modified pET expression vector)
T1 sequence (P51449 with tags, fused parts or gaps): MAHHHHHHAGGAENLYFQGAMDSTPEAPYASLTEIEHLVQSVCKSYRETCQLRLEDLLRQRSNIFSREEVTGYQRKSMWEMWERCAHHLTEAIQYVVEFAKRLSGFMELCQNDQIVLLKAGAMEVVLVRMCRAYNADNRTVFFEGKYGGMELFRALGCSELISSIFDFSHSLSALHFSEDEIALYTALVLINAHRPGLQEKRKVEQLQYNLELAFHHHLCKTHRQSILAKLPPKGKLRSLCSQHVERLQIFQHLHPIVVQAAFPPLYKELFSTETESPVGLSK
Method: This approach is applicable to a wide variety of systems, and rigorous in theoretical interpretation through quantitation of equilibrium binding constants (KD).
The shift in the melting point described as a ΔTm is proportional to the concentration and affinity of the ligand.
Protein and compound solutions are dispensed into black 384-well polypropylene PCR microplates (Abgene) and overlayed with silicone oil (1 μL, Fluka, type DC 200) to prevent evaporation.
Bar-coded assay plates are robotically loaded onto a thermostatically controlled PCR-type thermal block and then heated at a typical ramp-rate of 1° C./min for all experiments.
Fluorescence was measured by continuous illumination with UV light (Hamamatsu LC6) supplied via fiber optic and filtered through a band-pass filter (380-400 nm; >6 OD cutoff). Fluorescence emission of the entire 384-well plate was detected by measuring light intensity using a CCD camera (Sensys, Roper Scientific) filtered to detect 500±25 nm, resulting in simultaneous and independent readings of all 384 wells. Images were collected at each temperature, and the sum of the pixel intensity in a given area of the assay plate was recorded versus temperature. Reference wells contained RORγt without compounds, and the assay conditions were as follows: • 0.065 mg/mL RORγt • 60 μM 1,8-ANS • 100 mM Hepes, pH 7.0 • 10 mM NaCl • 2.5 mM GSH • 0.002% Tween-20
Project compounds were arranged in a pre-dosed mother plate (Greiner Bio-one) wherein compounds are serially diluted in 100% DMSO by 1:2 from a high concentration of 10 mM over 12 columns within a series (column 12 is a reference well containing DMSO, no compound). The compounds were robotically dispensed directly into assay plates (1×=46 nL) using a Hummingbird capillary liquid handling instrument (Digilab). Following compound dispense, protein and dye in buffer was added to achieve the final assay volume of 3 μL, followed by 1 μL of silicone oil.

[2] = biological target: T2, full-length human RORγt (Homo sapiens, UniProt P51449); experiment: RORγt (full-length human) Reporter Assay, Conditions A; type: cell-based; settings: for IC50: HEK293T cells, GAL4-DBD-RORγt, luciferase, read-out: RORγt (FL) Reporter Assay A, IC50; for inhibition at 6 µM: read-out: RORγt (FL) Reporter Assay A, % inhibition @ 6 μM, 6 μM compound; for inhibition at 2 µM: read-out: RORγt (FL) Reporter Assay A, % inhibition (* at 2 μM), 2 μM compound concentration (footnote *)
T2 construct: expressed in transfected cells; host or cells: HEK293T, transiently transfected with pCMV-BD-ROR
T2 sequence (P51449 1-497 isoform P51449-2): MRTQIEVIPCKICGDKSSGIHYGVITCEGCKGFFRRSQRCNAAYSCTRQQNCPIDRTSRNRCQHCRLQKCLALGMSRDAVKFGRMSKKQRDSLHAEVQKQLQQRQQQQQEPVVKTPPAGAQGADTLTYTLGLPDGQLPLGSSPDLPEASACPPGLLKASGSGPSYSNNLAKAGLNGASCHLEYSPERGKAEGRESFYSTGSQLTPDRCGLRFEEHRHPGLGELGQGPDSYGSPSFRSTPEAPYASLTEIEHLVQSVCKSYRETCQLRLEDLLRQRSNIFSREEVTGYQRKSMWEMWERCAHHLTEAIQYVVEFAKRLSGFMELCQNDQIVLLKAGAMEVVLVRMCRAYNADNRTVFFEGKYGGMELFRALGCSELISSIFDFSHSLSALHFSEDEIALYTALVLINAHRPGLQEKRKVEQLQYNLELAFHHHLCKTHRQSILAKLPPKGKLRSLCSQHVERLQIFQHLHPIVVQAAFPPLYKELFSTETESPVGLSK
Method: After overnight (16 to 20 hours) incubation, media were removed and cells were lysed with 20 μL 1× Passive Lysis Buffer (Promega) for 10-15 minutes. Luminescence was measured using a BMG LUMIstar OPTIMA plate reader, after addition of 75 μL/well firefly luciferase buffer, followed by 75 μL/well Renilla luciferase buffer. To calculate the effect of compounds on RORγt activity, firefly values were normalized against values of DMSO only and values of reference compound at saturating concentration, then further normalized against Renilla signals. IC50s were generated by plotting final Renilla normalized data against compound concentration and percent inhibition was calculated against DMSO control.

Structure (SMILES) | Kd [1] | IC50 [2] | inhibition at 6 µM [2] | inhibition at 2 µM [2]
C[C@H](NS(=O)(=O)c1ccc(-c2sc(-c3nnc(CC(C)(C)O)o3)nc2C(=O)N2CCC(F)(F)CC2)c(Cl)c1Cl)C(F)(F)F [Example 3, (S)-2,3-Dichloro-4-(4-(4,4-difluoropiperidine-1-carbonyl)-2-(5-(2-hydroxy-2-methylpropyl)-1,3,4-oxadiazol-2-yl)thiazol-5-yl)-N-(1,1,1-trifluoropropan-2-yl)benzenesulfonamide] | 1.6 nM | 26 nM | 107% | –
C[C@H](NS(=O)(=O)c1ccc(-c2sc(-c3nnc(CC(C)(C)O)o3)nc2C(=O)N2CCC(F)(F)C2)c(Cl)c1Cl)C(F)(F)F [Example 3/1, (S)-2,3-Dichloro-4-(4-(3,3-difluoropyrrolidine-1-carbonyl)-2-(5-(2-hydroxy-2-methylpropyl)-1,3,4-oxadiazol-2-yl)thiazol-5-yl)-N-(1,1,1-trifluoropropan-2-yl)benzenesulfonamide] | 16 nM | 57 nM | 109% | –
C[C@H](NS(=O)(=O)c1ccc(-c2sc(-c3nnc(CC(C)(C)O)o3)nc2C(=O)N2CC(F)(F)C[C@@H]2C)c(Cl)c1Cl)C(F)(F)F [Example 3/2, 2,3-Dichloro-4-(4-((S)-4,4-difluoro-2-methylpyrrolidine-1-carbonyl)-2-(5-(2-hydroxy-2-methylpropyl)-1,3,4-oxadiazol-2-yl)thiazol-5-yl)-N—((S)-1,1,1-trifluoropropan-2-yl)benzenesulfonamide] | 0.59 nM | 23 nM | 107% | –
CCN(CC)C(=O)c1nc(-c2nnc(CC(C)(C)O)o2)sc1-c1ccc(S(=O)(=O)N[C@@H](C)C(F)(F)F)c(Cl)c1Cl [Example 3/3, (S)-5-(2,3-Dichloro-4-(N-(1,1,1-trifluoropropan-2-yl)sulfamoyl)phenyl)-N,N-diethyl-2-(5-(2-hydroxy-2-methylpropyl)-1,3,4-oxadiazol-2-yl)thiazole-4-carboxamide] | 10 nM | 27 nM | 107% | –
CC(C)(O)Cc1nnc(-c2nc(C(=O)N3CCC(F)CC3)c(-c3ccc(C(O)(C(F)(F)F)C(F)(F)F)c(Cl)c3Cl)s2)o1 [Example 3/4, (5-(2,3-Dichloro-4-(1,1,1,3,3,3-hexafluoro-2-hydroxypropan-2-yl)phenyl)-2-(5-(2-hydroxy-2-methylpropyl)-1,3,4-oxadiazol-2-yl)thiazol-4-yl)(4-fluoropiperidin-1-yl)methanone] | 24 nM | 50 nM | – | 106%
CC(C)(O)Cc1nnc(-c2nc(C(=O)N3CC[C@H](F)C3)c(-c3ccc(C(O)(C(F)(F)F)C(F)(F)F)c(Cl)c3Cl)s2)o1 [Example 3/6, (S)-(5-(2,3-Dichloro-4-(1,1,1,3,3,3-hexafluoro-2-hydroxypropan-2-yl)phenyl)-2-(5-(2-hydroxy-2-methylpropyl)-1,3,4-oxadiazol-2-yl)thiazol-4-yl)(3-fluoropyrrolidin-1-yl)methanone] | 76 nM | 370 nM | 104% | –
C[C@H](NS(=O)(=O)c1ccc(-c2sc(-c3nnc(CC(C)(C)O)o3)nc2C(=O)N2CCC(F)(F)CC2)c(OC(F)F)c1F)C(F)(F)F [Example 3/7, (S)-3-(Difluoromethoxy)-4-(4-(4,4-difluoropiperidine-1-carbonyl)-2-(5-(2-hydroxy-2-methylpropyl)-1,3,4-oxadiazol-2-yl)thiazol-5-yl)-2-fluoro-N-(1,1,1-trifluoropropan-2-yl)benzenesulfonamide] | 81 nM | 290 nM | 103% | –
CC1CCN(C(=O)c2nc(-c3nnc(C(C)(C)O)o3)sc2-c2ccc(S(=O)(=O)N[C@@H](C)C(F)(F)F)c3ccccc23)CC1 [Example 4, (S)-4-(2-(5-(2-Hydroxypropan-2-yl)-1,3,4-oxadiazol-2-yl)-4-(4-methylpiperidine-1-carbonyl)thiazol-5-yl)-N-(1,1,1-trifluoropropan-2-yl)naphthalene-1-sulfonamide] | 1.5 nM | 19 nM | – | 103%
C[C@H](NS(=O)(=O)c1ccc(-c2sc(-c3nnc(C(C)(C)O)o3)nc2C(=O)N2CCCC[C@@H]2C)c(Cl)c1Cl)C(F)(F)F [Example 4/3, 2,3-Dichloro-4-(2-(5-(2-hydroxypropan-2-yl)-1,3,4-oxadiazol-2-yl)-4-((S)-2-methylpiperidine-1-carbonyl)thiazol-5-yl)-N—((S)-1,1,1-trifluoropropan-2-yl)benzenesulfonamide] | 0.38 nM | 26 nM | 105% | –
C[C@H](NS(=O)(=O)c1ccc(-c2sc(-c3nnco3)nc2C(=O)N2CCC(F)(F)CC2)c(Cl)c1Cl)C(F)(F)F [Example 4/5, (S)-2,3-Dichloro-4-(4-(4,4-difluoropiperidine-1-carbonyl)-2-(1,3,4-oxadiazol-2-yl)thiazol-5-yl)-N-(1,1,1-trifluoropropan-2-yl)benzenesulfonamide] | 12 nM | 52 nM | 110% | –
CCN(CC(F)(F)F)C(=O)c1nc(-c2nnc(C(C)(C)O)o2)sc1-c1ccc(S(=O)(=O)N[C@@H](C)C(F)(F)F)c(Cl)c1Cl [Example 4/6, (S)-5-(2,3-Dichloro-4-(N-(1,1,1-trifluoropropan-2-yl)sulfamoyl)phenyl)-N-ethyl-2-(5-(2-hydroxypropan-2-yl)-1,3,4-oxadiazol-2-yl)-N-(2,2,2-trifluoroethyl)thiazole-4-carboxamide] | 6.3 nM | 23 nM | 101% | –
CC1CCN(C(=O)c2nc(-c3nnc(C(N)=O)o3)sc2-c2ccc(S(=O)(=O)N[C@@H](C)C(F)(F)F)c3ccccc23)CC1 [Example 5, (S)-5-(4-(4-Methylpiperidine-1-carbonyl)-5-(4-(N-(1,1,1-trifluoropropan-2-yl)sulfamoyl)naphthalen-1-yl)thiazol-2-yl)-1,3,4-oxadiazole-2-carboxamide] | 37 nM | 170 nM | 106% | –
CCN(CC)C(=O)c1nc(-c2nnc(C(N)=O)o2)sc1-c1ccc(S(=O)(=O)N[C@@H](C)C(F)(F)F)c(Cl)c1Cl [Example 5/1, (S)-5-(5-(2,3-Dichloro-4-(N-(1,1,1-trifluoropropan-2-yl)sulfamoyl)phenyl)-4-(diethylcarbamoyl)thiazol-2-yl)-1,3,4-oxadiazole-2-carboxamide] | 120 nM | 280 nM | 105% | –
CC[C@H](NS(=O)(=O)c1ccc(-c2sc(-c3nnc(C(C)(C)O)o3)nc2C(=O)N(CC)CC)c(Cl)c1Cl)C(F)(F)F [Example 6, (S)-5-(2,3-Dichloro-4-(N-(1,1,1-trifluorobutan-2-yl)sulfamoyl)phenyl)-N,N-diethyl-2-(5-(2-hydroxypropan-2-yl)-1,3,4-oxadiazol-2-yl)thiazole-4-carboxamide] | 0.99 nM | 13 nM | – | 105%
